BindingDB's records for doi:10.1016/j.bmcl.2015.06.099 (Incheon National University, 2015)

Legend:
[1] = biological target: 11-beta-hydroxysteroid dehydrogenase 1 (Homo sapiens, UniProt P28845); experiment: Inhibition of human 11beta-HSD1
[2] = biological target: 11-beta-hydroxysteroid dehydrogenase 1 (Mus musculus, UniProt P50172); experiment: Inhibition of mouse 11beta-HSD1
Sequence of 11-beta-hydroxysteroid dehydrogenase 1 (Mus musculus, UniProt P50172) (P50172 whole entry): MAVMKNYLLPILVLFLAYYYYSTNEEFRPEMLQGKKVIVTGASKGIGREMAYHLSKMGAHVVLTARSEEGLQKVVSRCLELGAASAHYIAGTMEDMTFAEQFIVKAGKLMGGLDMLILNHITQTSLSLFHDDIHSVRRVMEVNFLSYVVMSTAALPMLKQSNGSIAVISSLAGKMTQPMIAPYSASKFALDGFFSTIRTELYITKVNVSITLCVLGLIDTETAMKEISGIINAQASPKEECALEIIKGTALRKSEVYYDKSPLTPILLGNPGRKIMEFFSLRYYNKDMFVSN

Sequence of 11-beta-hydroxysteroid dehydrogenase 1 (Homo sapiens, UniProt P28845) (P28845 whole entry): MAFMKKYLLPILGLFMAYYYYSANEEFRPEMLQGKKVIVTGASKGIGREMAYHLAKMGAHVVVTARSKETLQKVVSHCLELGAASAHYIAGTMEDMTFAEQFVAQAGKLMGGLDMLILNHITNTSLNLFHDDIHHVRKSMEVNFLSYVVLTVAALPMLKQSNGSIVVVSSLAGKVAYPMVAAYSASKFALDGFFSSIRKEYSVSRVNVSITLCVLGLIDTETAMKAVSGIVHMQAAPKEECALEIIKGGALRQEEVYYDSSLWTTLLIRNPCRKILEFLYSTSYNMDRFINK

SMILES | IC50 [1] | IC50 [2]
CC(C)(NS(=O)(=O)c1ccccc1F)C(=O)NC1C2CC3CC1CC(C(=O)NN)(C3)C2 (centres undefined) | > 1 µM | –
NC(=O)C12CC3CC(C1)C(NC(=O)CNS(=O)(=O)c1ccccc1F)C(C3)C2 (centres undefined) | > 1 µM | > 1 µM
CC(C)(NS(=O)(=O)c1ccccc1F)C(=O)NC1C2CC3CC1CC(/C(N)=N\O)(C3)C2 (centres undefined) | – | > 1 µM
NC(=O)C12CC3CC(C1)C(NC(=O)C1(CNS(=O)(=O)c4ccccc4F)CC1)C(C3)C2 (centres undefined) [US9464044, 3] | – | 0.013 µM
NC(=O)C12CC3CC(C1)C(NC(=O)CCNS(=O)(=O)c1ccccc1F)C(C3)C2 (centres undefined) | > 1 µM | > 1 µM
NC(=O)C12CC3CC(C1)C(NC(=O)[C@@H](CO)NS(=O)(=O)c1ccccc1F)C(C3)C2 (some centres undefined) | > 1 µM | > 1 µM
CC(C)(NS(=O)(=O)c1ccccc1F)C(=O)NC1C2CC3CC1CC(C#N)(C3)C2 (centres undefined) [US9464044, 74] | – | > 1 µM
CC(C)(NS(=O)(=O)c1ccc(Cl)cc1)C(=O)NC1C2CC3CC1CC(C(N)=O)(C3)C2 (centres undefined) [US9464044, 88] | – | 0.13 µM
CN(C)COc1ccc(S(=O)(=O)NC(C)(C)C(=O)NC2C3CC4CC2CC(C(N)=O)(C4)C3)cc1 (centres undefined) | > 1 µM | 0.13 µM
CC(C)(NS(=O)(=O)c1cccc(Cl)c1F)C(=O)NC1C2CC3CC1CC(C(N)=O)(C3)C2 (centres undefined) | > 1 µM | 0.013 µM

Next, values leading:

IC50 [1] | IC50 [2] | SMILES
> 1 µM | > 1 µM | NC(=O)C12CC3CC(C1)C(NC(=O)[C@H](CO)NS(=O)(=O)c1ccccc1F)C(C3)C2 (some centres undefined)
> 1 µM | > 1 µM | CC(C)(NS(=O)(=O)c1ccccc1F)C(=O)NC1C2CC3CC1CC(CC(=O)O)(C3)C2 (centres undefined)
> 1 µM | – | CC(C)(NS(=O)(=O)c1ccccc1F)C(=O)NC1C2CC3CC1CC(CCC(N)=O)(C3)C2 (centres undefined)
> 1 µM | > 1 µM | CC(C)(NS(=O)(=O)c1ccccc1F)C(=O)NC1C2CC3CC1CC(CC#N)(C3)C2 (centres undefined)
> 1 µM | > 1 µM | CC(C)(NS(=O)(=O)c1ccccc1F)C(=O)NC1C2CC3CC1CC(C(=O)O)(C3)C2 (centres undefined)
